Experimental data from ChEMBL document CHEMBL1201862, “PubChem BioAssay data set” (2004).
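Method: 48-hour compound exposure of cells in 96-well plates, five concentrations, linear interpolation of endpoints. At the GI50, growth is halved.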 Active and inactive are the calls of the source. No stated cut-off is given here; in the data, active = GI50 up to about 1.1 µM and inactive = higher.

Tests used:
Assay in all cases: NCI-60 cell line screen, 48 h
[1] = tested on: RXF 393
[2] = tested on: MDA-N
[3] = tested on: T47D
[4] = tested on: CCRF-CEM
[5] = tested on: HCT-15
[6] = tested on: Hs-578T
[7] = tested on: MCF7
[8] = tested on: OVCAR-8
[9] = tested on: SW-620
[10] = tested on: SK-MEL-2
[11] = tested on: Malme-3M
[12] = tested on: HT-29
[13] = tested on: ACHN
[14] = tested on: HCC 2998
[15] = tested on: SNB-75
[16] = tested on: HCT-116
[17] = tested on: A498
[18] = tested on: 786-0
[19] = tested on: OVCAR-3
[20] = tested on: IGROV-1

Row | SMILES | GI50 [1] | GI50 [2] | GI50 [3] | GI50 [4] | GI50 [5] [µM] | GI50 [6] | GI50 [7] | GI50 [8] | GI50 [9] | GI50 [10] | GI50 [11] | GI50 [12] | GI50 [13] | GI50 [14] | GI50 [15] | GI50 [16] | GI50 [17] | GI50 [18] | GI50 [19] | GI50 [20]
1 | COc1c(/C=C/C(C)(C)O)cc(C2CC(=O)c3c(O)cc(O)cc3O2)cc1CC=C(C)C (stereo not drawn) | 7.91 µM (inactive) | 9.53 µM (inactive) | 11 µM (inactive) | 13.2 µM (inactive) | 8.2 | 10.7 µM (inactive) | 8.51 µM (inactive) | 10.8 µM (inactive) | 17.3 µM (inactive) | 8.61 µM (inactive) | 10.1 µM (inactive) | 8.91 µM (inactive) | 7.6 µM (inactive) | 2.36 µM (inactive) | 9.86 µM (inactive) | 9.14 µM (inactive) | 9.48 µM (inactive) | 9.57 µM (inactive) | – | –
2 | O=C(CCCCCCCCC(=O)N1C(=O)CC(=O)N(c2cccc(Cl)c2)C1=S)N1C(=O)CC(=O)N(c2cccc(Cl)c2)C1=S | 44.9 µM (inactive) | 41.2 µM (inactive) | 37 µM (inactive) | 32.7 µM (inactive) | 43.5 | 19.3 µM (inactive) | 34.3 µM (inactive) | 34.9 µM (inactive) | – | 37.7 µM (inactive) | 66.1 µM (inactive) | 36.9 µM (inactive) | 46.2 µM (inactive) | 94.4 µM (inactive) | 33.3 µM (inactive) | 34.2 µM (inactive) | 39.9 µM (inactive) | 45.6 µM (inactive) | 25.2 µM (inactive) | –
3 | C[C@H]1S[C@H](c2c(Cl)cccc2Cl)N2Cc3ccccc3N=C12 | 14.1 µM (inactive) | 21 µM (inactive) | 12.4 µM (inactive) | 21 µM (inactive) | 14.9 | 10.8 µM (inactive) | 14.2 µM (inactive) | – | 25.1 µM (inactive) | 10.1 µM (inactive) | – | – | 12.4 µM (inactive) | 14.4 µM (inactive) | 14.1 µM (inactive) | 4.35 µM (inactive) | 24.5 µM (inactive) | 8.49 µM (inactive) | 11.4 µM (inactive) | 12.1 µM (inactive)
4 | CCCCC(=O)OC[n+]1cccc(-c2c(COC(=O)NC(C)C)c(COC(=O)NC(C)C)c3n2CCC3)c1 | 22.9 µM (inactive) | 99.1 µM (inactive) | > 83.2 µM (inactive) | 7.93 µM (inactive) | 53.3 | > 50.6 µM (inactive) | 28.8 µM (inactive) | 44 µM (inactive) | 38.5 µM (inactive) | 26.4 µM (inactive) | 32.7 µM (inactive) | 43 µM (inactive) | 21.3 µM (inactive) | > 100 µM (inactive) | 50 µM (inactive) | 37.2 µM (inactive) | 25.8 µM (inactive) | 23.1 µM (inactive) | 57.3 µM (inactive) | 51.5 µM (inactive)
5 | O=C1c2ccccc2C(C2c3ccccc3C(=O)c3cc(Br)ccc32)c2ccc(Br)cc21 (stereo not drawn) | > 100 µM (inactive) | > 100 µM (inactive) | > 100 µM (inactive) | – | > 100 | > 100 µM (inactive) | > 100 µM (inactive) | > 100 µM (inactive) | > 100 µM (inactive) | – | > 100 µM (inactive) | > 100 µM (inactive) | > 100 µM (inactive) | > 100 µM (inactive) | > 100 µM (inactive) | 59.2 µM (inactive) | > 100 µM (inactive) | > 100 µM (inactive) | > 100 µM (inactive) | > 100 µM (inactive)
6 | CC(C)(NC1=NCCO1)c1ccccc1 | > 100 µM (inactive) | > 100 µM (inactive) | > 100 µM (inactive) | – | > 100 | > 100 µM (inactive) | > 100 µM (inactive) | > 100 µM (inactive) | > 100 µM (inactive) | > 100 µM (inactive) | > 100 µM (inactive) | > 100 µM (inactive) | > 100 µM (inactive) | > 100 µM (inactive) | > 100 µM (inactive) | > 100 µM (inactive) | > 100 µM (inactive) | > 100 µM (inactive) | > 100 µM (inactive) | > 100 µM (inactive)
7 | CC1=NN(c2cccc(Cl)c2)C2(C1=Cc1cccs1)C(Cl)C(=O)N2c1nc2ccccc2s1 (stereo not drawn) | 21.1 µM (inactive) | 22.1 µM (inactive) | 28.6 µM (inactive) | – | 20.6 | 27.4 µM (inactive) | 23.2 µM (inactive) | 20.4 µM (inactive) | 38.4 µM (inactive) | 17.9 µM (inactive) | – | 21.6 µM (inactive) | 20.8 µM (inactive) | 17 µM (inactive) | 34.8 µM (inactive) | 18.4 µM (inactive) | 21.8 µM (inactive) | 13.8 µM (inactive) | 17.7 µM (inactive) | 28.6 µM (inactive)
8 | O=c1[nH]c(=O)n([C@@H]2O[C@H](CO)[C@@H](O)[C@@H]2F)cc1I [FIALURIDINE] | 54.1 µM (inactive) | > 100 µM (inactive) | > 100 µM (inactive) | 4.8 µM (inactive) | > 100 | > 100 µM (inactive) | 67.6 µM (inactive) | > 100 µM (inactive) | > 100 µM (inactive) | – | > 100 µM (inactive) | > 100 µM (inactive) | > 100 µM (inactive) | > 100 µM (inactive) | > 100 µM (inactive) | > 100 µM (inactive) | 59.4 µM (inactive) | > 100 µM (inactive) | > 100 µM (inactive) | > 100 µM (inactive)
9 | Cc1c(C(=O)N2CCN(c3ccc([N+](=O)[O-])cc3)CC2)[n+]([O-])c2cc(Cl)c(Cl)cc2[n+]1[O-] | 13.6 µM (inactive) | 26.7 µM (inactive) | 17.1 µM (inactive) | > 100 µM (inactive) | 17.1 | 22.6 µM (inactive) | 16.2 µM (inactive) | 16.9 µM (inactive) | 21.6 µM (inactive) | 31.3 µM (inactive) | 21.8 µM (inactive) | 25.2 µM (inactive) | 13.5 µM (inactive) | 13.2 µM (inactive) | – | 19 µM (inactive) | 7.19 µM (inactive) | 16.5 µM (inactive) | 22.8 µM (inactive) | 22.2 µM (inactive)
10 | Cc1cc(=O)oc2cc(SC(=O)N(C)C)ccc12 | > 100 µM (inactive) | > 100 µM (inactive) | > 100 µM (inactive) | – | > 100 | > 100 µM (inactive) | > 100 µM (inactive) | > 100 µM (inactive) | > 100 µM (inactive) | > 100 µM (inactive) | > 100 µM (inactive) | > 100 µM (inactive) | > 100 µM (inactive) | > 100 µM (inactive) | > 100 µM (inactive) | > 100 µM (inactive) | > 100 µM (inactive) | > 100 µM (inactive) | > 100 µM (inactive) | > 100 µM (inactive)
11 | O=C1Nc2ccc(Br)cc2/C1=N/N1C(=O)C(=O)N(C2CCCCC2)C1=S | 10 µM (inactive) | 2.02 µM (inactive) | 2.62 µM (inactive) | 2.21 µM (inactive) | 2.42 | 8.38 µM (inactive) | 4.17 µM (inactive) | – | 3.56 µM (inactive) | 1.41 µM (inactive) | 3.21 µM (inactive) | 2.75 µM (inactive) | 4.83 µM (inactive) | 3.64 µM (inactive) | – | 2.72 µM (inactive) | 3.76 µM (inactive) | 5.46 µM (inactive) | 2.47 µM (inactive) | –
12 | CC(C)CCCCCCCCCCCCC(=O)NCC(=O)NC1C(O)C(O)C(Nc2[nH]cnc3ncnc2-3)OC1C(O)CO (stereo not drawn) | 0.000877 µM (active) | 0.229 µM (active) | 0.32 µM (active) | 0.0568 µM (active) | 0.0653 | 0.172 µM (active) | 0.0234 µM (active) | 0.000578 µM (active) | – | 0.00579 µM (active) | 0.000679 µM (active) | 0.000555 µM (active) | 0.225 µM (active) | 0.00018 µM (active) | 0.000441 µM (active) | 0.000479 µM (active) | 0.000248 µM (active) | 0.225 µM (active) | 0.000605 µM (active) | 0.000508 µM (active)
13 | COC1/C=C/C(C)C(O)CC(O)/C=C/C(C)C(C(C)C(OC)C(C)CCC(=O)C(C)C(C/C=C/N(C)C=O)OC)OC(=O)/C=C/C=C(\C)CC(OC)CC2=CC(=O)O[C@@H](C(C)C(OC)C1)[C@H]2O (stereo partly drawn) | < 0.005 µM (active) | < 0.005 µM (active) | 0.0219 µM (active) | 0.00687 µM (active) | < 0.005 | 0.00879 µM (active) | 0.00522 µM (active) | < 0.005 µM (active) | < 0.005 µM (active) | – | < 0.005 µM (active) | < 0.005 µM (active) | < 0.005 µM (active) | < 0.005 µM (active) | < 0.005 µM (active) | < 0.005 µM (active) | < 0.005 µM (active) | < 0.005 µM (active) | < 0.005 µM (active) | 0.0113 µM (active)
14 | CN(C)c1n/c(=N/Cc2ccncc2)ss1 | 31.8 µM (inactive) | 21.7 µM (inactive) | 10.7 µM (inactive) | 13.6 µM (inactive) | 45 | 23.6 µM (inactive) | 61 µM (inactive) | 17.6 µM (inactive) | 23.9 µM (inactive) | – | 18.5 µM (inactive) | 19.3 µM (inactive) | 13.5 µM (inactive) | > 52.6 µM (inactive) | 18.4 µM (inactive) | 20.5 µM (inactive) | > 100 µM (inactive) | 17.4 µM (inactive) | > 48.6 µM (inactive) | > 75.5 µM (inactive)
15 | CCCCCCCC1(N=[N+]=[N-])C(=O)Nc2ccccc2C1=O (stereo not drawn) | 12.6 µM (inactive) | 19.8 µM (inactive) | 14.6 µM (inactive) | 17.1 µM (inactive) | 21.9 | 17.5 µM (inactive) | 19.1 µM (inactive) | – | 12.4 µM (inactive) | 16.8 µM (inactive) | 17.7 µM (inactive) | 22.6 µM (inactive) | 14.4 µM (inactive) | 20.6 µM (inactive) | 14 µM (inactive) | 17.3 µM (inactive) | 0.971 µM (active) | 16.6 µM (inactive) | 16.1 µM (inactive) | 12.1 µM (inactive)
